Experimental data taken from US20090036496A1, “Treatment of Stress Urinary Incontinence and Mixed Urinary Incontinence” (UROGENE, priority 2005, published 2009).

Tests used:
[1] = test system: alpha1-adrenergic receptors; assay: Contraction of isolated rabbit urethra rings by activation of alpha1-adrenergic receptors; conditions: for contraction of the urethra induced by the compound itself: cumulative concentrations 0.01 to 100 μM, relative to norepinephrine 30 μM
Procedure: The compounds were tested in ex vivo experiments carried out on rabbit urethra.
The tests were carried out on isolates of rabbit urethra which were obtained as follows.
The whole urethra was excised and washed in order to remove the adipose and connective tissues, and then cut into rings approximately 4 mm in diameter, one at the median level, the other at the distal level of the urethra.
In this trial, the ability of each of the four compounds mentioned above to induce, by themselves, a contraction of the urethra by activation of the alpha1-adrenergic receptors, compared with norepinephrine used as a positive control, is measured.
The protocol followed is an adaptation of the protocol described by Van der Graaf et al. (Eur. J. Pharmacol., 327: 25-32, 1997).
Krebs-Henseleit solution was modified by adding propanolol (1 μM), normetanephrin (1 μM), desipramine (0.1 μM) and deoxycorticosterone (3 μM) in order to block the beta-adrenergic receptors, catechol-O-methyltransferase and the uptake of noradrenalin type 1 (neuronal) and 2 (extraneuronal), respectively.
An initial force of 1 g is applied to the samples. After a period of 60 minutes of equilibration, the rings are brought into contact with norepinephrine (30 μM), twice consecutively, separated by washing for 60 minutes. The rings that have a contractile response of less than 1 g are discarded and new rings are optionally prepared. After washing for 30 minutes, the compound tested is added at cumulative concentrations ranging from 0.01 to 100 μM. In parallel, the solvent of the compound (distilled water or DMSO) is tested thereon so as to obtain a control curve.
In the case of HP748, an additional experiment was carried out in which prazosin (1 μM), an alpha1-adrenergic receptor antagonist, was incubated for 30 minutes before the addition of HP748.
The results are expressed as percentage of the contraction induced by the second addition of norepinephrine at 30 μM as a function of the concentration of the compound. The latter is represented on a logarithmic scale, by the logarithm of the value in mol/l.

[2] = test system: female New Zealand white rabbits; assay: Continuous cystometry under irritated bladder conditions (0.5% acetic acid infusion); format: in vivo, rabbit; conditions: for bladder capacity: p<0.01
Procedure: (§1) The effects of cumulative doses of HP749 (0, 1, 3 and 5 mg/kg i.v.), or duloxetine (0, 1 and 2 mg/kg i.v.) on the electromyographic and cystometric parameters were evaluated in anaesthetized female New Zealand white rabbits (n=12/group) under irritated conditions (continuous transvesical infusion of 0.5% acetic acid). The study was performed in accordance with the ethical standards of the Helsinki declaration.
Continuous cystometry was performed with the animal supine using a subcutaneous cystostomy. A T tube was connected to the multiperforable plug using a 20-gauge needle, online with a TRA021 pressure transducer and a micro-injection pump. Room-temperature diluted acetic acid was infused into the bladder at a rate of 1.4 ml/hr to elicit repetitive voidings, which allowed collection of data for a large number of voiding cycles. Continuous cystometry was recorded on a PowerLab 4/25.
(§2) At the beginning of the cystometry the bladder was emptied. The liquid infusion to stabilize the cyclic voidings was maintained at least for 60 minutes, continuously recording the cystometrogram. Then, placebo was intravenously administered, and the cystometrogram was recorded for other 40 minutes. Consecutive doses of duloxetine or HP749 were then administered with an interval of 40 minutes.
(§3) An intravenous cannula was connected to the ear vein for vehicle (saline) or drug administration. The drugs were freshly prepared before each experiment in saline. Drugs were administered intravenously in a volume of 1 ml. followed by 1 ml. flush of physiological saline.
(§4) All values were expressed as the mean±SEM. Duloxetine or HP749 effects were analyzed and compared with control (saline) values using Wilcoxon rank test. Mann-Whitney U test was performed to compare the effects of duloxetine and HP-749. Statistical significance was considered at p<0.05.

[3] = test system: female New Zealand white rabbits; assay: Electromyography of striated sphincter (SS-EMG) under irritated bladder conditions; format: in vivo, rabbit
Procedure: as §1, §2
Two electrodes (30-gauge needle) were placed percutaneously into the striated anal sphincter approximately 5-10 mm. lateral to the anus. […] SS-EMG was continuously recorded during the cystometry.
as §3, §4

Cc1cn(Nc2ccncc2F)c2ccccc12 [HP183, reference compound]
contraction of the urethra induced by the compound itself [1]: no effect

CCCN(c1ccncc1F)n1cc(C)c2ccccc21 [HP184, reference compound]
contraction of the urethra induced by the compound itself [1]: no effect

c1ccc2c(c1)ccn2Nc1ccncc1 [HP748, N-(4-pyridinyl)-1H-indol-1-amine]
contraction of the urethra induced by the compound itself [1]: induces a significant contraction
contraction of the urethra after preincubation with prazosin ([1]; preincubation with 1 μM of prazosin for 30 minutes): completely blocked

CCCN(c1ccncc1)n1ccc2ccccc21 [HP749, N-propyl-N-(4-pyridinyl)-1H-indol-1-amine]
bladder capacity ([2]; 1 mg/kg i.v.): 172 % of the control
bladder capacity ([2]; 5 mg/kg i.v.): 235 % of the control
effect on bladder capacity compared with duloxetine ([2]; Mann-Whitney U test, p<0.05): significantly higher than those of duloxetine
effect on SS-EMG compared with duloxetine ([3]; Mann-Whitney U test, p<0.05): significantly higher than those of duloxetine
SS-EMG increase ([3]; all doses tested (1, 3 and 5 mg/kg i.v.), p<0.01): 2.5 fold
contraction of the urethra induced by the compound itself [1]: no effect

CNCC[C@H](Oc1cccc2ccccc12)c1cccs1 [duloxetine, reference compound]
bladder capacity ([2]; duloxetine 1 and 2 mg/kg i.v. cumulative): increased dose-dependently
SS-EMG activity ([3]; 2 mg./kg i.v., p<0.01): significantly increased
